Measurements: patent US12685315B2, “Herbicidal combination” (UPL do Brasil Industria e Comercio de Insumos Agropecuarios …, priority 2019, dated 2026)

Assays:
Format in all cases: in vivo
[1] = test system: Brachiaria decumbens (BRADC); test: Field trial of triple mixes of amicarbazone, pre and post-emergence weed control
Protocol: (§1) Field trials were done to evaluate the efficacy and synergism of the triple mixes of amicarbazone with other herbicides for the control of weeds in pre and post-emergence application.
(§2) The composition of the present invention was applied. This test was performed for species of weeds: Grasses namely BRADC=Brachiaria decumbens, CCHEC=Cenchrus echinatus, ELEIN=Eleusine indica, TRCIN=Digitaria insularis and Broadleaves namely IAQGR=Ipomoea grandifolia, EPHHL=Euphorbia heterophylla, COMBE=Commelina benghalensis. Data were collected at various period after application of the composition to the soil and calculated.

[2] = test system: Cenchrus echinatus (CCHEC); test: as above
Protocol: as §1, §2

[3] = test system: Eleusine indica; test: as above
Protocol: as §1, §2

[4] = test system: Commelina benghalensis; test: Field trial of triple mixes of amicarbazone, pre-emergence weed control; details: dose g ai/ha: Amicarbazone 75, Mesotrione 38, Ametryn 250, mix AMC + AME + MST 75 + 38 + 250
Protocol: as §1, §2

[5] = test system: Euphorbia heterophylla; test: as above; details: dose g ai/ha: Amicarbazone 250, Sulfentrazone 150, Diuron 250, mix 250 + 150 + 250
Protocol: as §1, §2

[6] = test system: Ipomoea grandifolia (IAQGR); test: as above
Protocol: as §1, §2

[7] = test system: Digitaria insularis; test: Field trial of triple mixes of amicarbazone, post-emergence weed control; details: dose g ai/ha: Amicarbazone 75, S-metolachlor 300, Atrazine 250, mix 75 + 300 + 250
Protocol: as §1, §2

`CC(C)c1nn(C(=O)NC(C)(C)C)c(=O)n1N` [Amicarbazone] was tested, and the “% Control” value ([1]; Table 1, Post-Emergence, 7 DAA, dose g ai/ha: Amicarbazone 75, Isoxaflutole 15, Atrazine 250, mix 75 + 15 + 250) was 43.8%, the “% Control” value ([1]; Table 1, Post-Emergence, 21 DAA, dose g ai/ha: Amicarbazone 75, Isoxaflutole 15, Atrazine 250, mix 75 + 15 + 250) was 38.8% and the “% Control” value ([1]; Table 1, Post-Emergence, 28 DAA, dose g ai/ha: Amicarbazone 75, Isoxaflutole 15, Atrazine 250, mix 75 + 15 + 250) was 40.0%. The “% Control” value ([1]; Table 1, Pre-Emergence, 7 DAA, dose g ai/ha: Amicarbazone 75, Isoxaflutole 15, Atrazine 250, mix 75 + 15 + 250) was 0.0%, the “% Control” value ([1]; Table 1, Pre-Emergence, 21 DAA, dose g ai/ha: Amicarbazone 75, Isoxaflutole 15, Atrazine 250, mix 75 + 15 + 250) was 0.0% and the “% Control” value ([1]; Table 1, Pre-Emergence, 28 DAA, dose g ai/ha: Amicarbazone 75, Isoxaflutole 15, Atrazine 250, mix 75 + 15 + 250) was 0.0%. For the same molecule, the “% Control” value ([1]; Table 5, Post-Emergence, 21 DAA, dose g ai/ha: Amicarbazone 250, Clomazone 250, Diuron 250, mix 250 + 250 + 250) was 25.0%, the “% Control” value ([1]; Table 5, Post-Emergence, 28 DAA, dose g ai/ha: Amicarbazone 250, Clomazone 250, Diuron 250, mix 250 + 250 + 250) was 16.3% and the “% Control” value ([1]; Table 5, Post-Emergence, 35 DAA, dose g ai/ha: Amicarbazone 250, Clomazone 250, Diuron 250, mix 250 + 250 + 250) was 13.8%. The “% Control” value ([1]; Table 5, Pre-Emergence, 21 DAA, dose g ai/ha: Amicarbazone 250, Clomazone 250, Diuron 250, mix 250 + 250 + 250) was 63.8%, the “% Control” value ([1]; Table 5, Pre-Emergence, 28 DAA, dose g ai/ha: Amicarbazone 250, Clomazone 250, Diuron 250, mix 250 + 250 + 250) was 50.0% and the “% Control” value ([1]; Table 5, Pre-Emergence, 35 DAA, dose g ai/ha: Amicarbazone 250, Clomazone 250, Diuron 250, mix 250 + 250 + 250) was 46.3%. For the same molecule, the “% Control” value ([2]; Table 2, Post-Emergence, 7 DAA, dose g ai/ha: Amicarbazone 75, Isoxaflutole 15, Atrazine 250, mix 75 + 15 + 250) was 33.8%, the “% Control” value ([2]; Table 2, Post-Emergence, 28 DAA, dose g ai/ha: Amicarbazone 75, Isoxaflutole 15, Atrazine 250, mix 75 + 15 + 250) was 40.0% and the “% Control” value ([2]; Table 2, Post-Emergence, 35 DAA, dose g ai/ha: Amicarbazone 75, Isoxaflutole 15, Atrazine 250, mix 75 + 15 + 250) was 36.3%. For the same molecule, the “% Control” value ([2]; Table 6, Post-Emergence, 21 DAA, dose g ai/ha: Amicarbazone 250, Sulfentrazone 150, Diuron 250, mix 250 + 150 + 250) was 0.0%, the “% Control” value ([2]; Table 6, Post-Emergence, 28 DAA, dose g ai/ha: Amicarbazone 250, Sulfentrazone 150, Diuron 250, mix 250 + 150 + 250) was 0.0% and the “% Control” value ([2]; Table 6, Post-Emergence, 35 DAA, dose g ai/ha: Amicarbazone 250, Sulfentrazone 150, Diuron 250, mix 250 + 150 + 250) was 0.0%. For the same molecule, the “% Control” value ([2]; Table 6, Pre-Emergence, 21 DAA, dose g ai/ha: Amicarbazone 250, Sulfentrazone 150, Diuron 250, mix 250 + 150 + 250) was 7.5%, the “% Control” value ([2]; Table 6, Pre-Emergence, 28 DAA, dose g ai/ha: Amicarbazone 250, Sulfentrazone 150, Diuron 250, mix 250 + 150 + 250) was 5.0% and the “% Control” value ([2]; Table 6, Pre-Emergence, 35 DAA, dose g ai/ha: Amicarbazone 250, Sulfentrazone 150, Diuron 250, mix 250 + 150 + 250) was 3.3%. The “% Control” value ([3]; Table 8, Post-Emergence, 14 DAA, dose g ai/ha: Amicarbazone 250, Sulfentrazone 150, Diuron 250, mix 250 + 150 + 250) was 13.8%, the “% Control” value ([3]; Table 8, Post-Emergence, 21 DAA, dose g ai/ha: Amicarbazone 250, Sulfentrazone 150, Diuron 250, mix 250 + 150 + 250) was 16.3% and the “% Control” value ([3]; Table 8, Post-Emergence, 28 DAA, dose g ai/ha: Amicarbazone 250, Sulfentrazone 150, Diuron 250, mix 250 + 150 + 250) was 13.8%. For the same molecule, the “% Control” value ([3]; Table 8, Pre-Emergence, 14 DAA, dose g ai/ha: Amicarbazone 250, Sulfentrazone 150, Diuron 250, mix 250 + 150 + 250) was 68.8%, the “% Control” value ([3]; Table 8, Pre-Emergence, 21 DAA, dose g ai/ha: Amicarbazone 250, Sulfentrazone 150, Diuron 250, mix 250 + 150 + 250) was 92.0% and the “% Control” value ([3]; Table 8, Pre-Emergence, 28 DAA, dose g ai/ha: Amicarbazone 250, Sulfentrazone 150, Diuron 250, mix 250 + 150 + 250) was 87.0%. The “% Control” value ([3]; Table 10, Post-Emergence, 14 DAA, dose g ai/ha: Amicarbazone 75, Mesotrione 38, Ametryn 250, mix AMC + AME + MST 75 + 38 + 250) was 0.0%, the “% Control” value ([3]; Table 10, Post-Emergence, 21 DAA, dose g ai/ha: Amicarbazone 75, Mesotrione 38, Ametryn 250, mix AMC + AME + MST 75 + 38 + 250) was 0.0% and the “% Control” value ([3]; Table 10, Post-Emergence, 28 DAA, dose g ai/ha: Amicarbazone 75, Mesotrione 38, Ametryn 250, mix AMC + AME + MST 75 + 38 + 250) was 0.0%. For the same molecule, the “% Control” value ([3]; Table 10, Pre-Emergence, 14 DAA, dose g ai/ha: Amicarbazone 75, Mesotrione 38, Ametryn 250, mix AMC + AME + MST 75 + 38 + 250) was 0.0%, the “% Control” value ([3]; Table 10, Pre-Emergence, 21 DAA, dose g ai/ha: Amicarbazone 75, Mesotrione 38, Ametryn 250, mix AMC + AME + MST 75 + 38 + 250) was 0.0% and the “% Control” value ([3]; Table 10, Pre-Emergence, 28 DAA, dose g ai/ha: Amicarbazone 75, Mesotrione 38, Ametryn 250, mix AMC + AME + MST 75 + 38 + 250) was 0.0%. For the same molecule, the “% Control” value ([4]; Table 11, 21 DAA) was 8.8%, the “% Control” value ([4]; Table 11, 28 DAA) was 7.3% and the “% Control” value ([4]; Table 11, 35 DAA) was 6.8%. For the same molecule, the “% Control” value ([5]; Table 7, 7 DAA) was 3.8%, the “% Control” value ([5]; Table 7, 14 DAA) was 28.8% and the “% Control” value ([5]; Table 7, 21 DAA) was 56.3%. For the same molecule, the “% Control” value ([6]; Table 3, 14 DAA, dose g ai/ha: Amicarbazone 75, Isoxaflutole 15, Atrazine 250, mix 75 + 15 + 250) was 11.3%, the “% Control” value ([6]; Table 3, 21 DAA, dose g ai/ha: Amicarbazone 75, Isoxaflutole 15, Atrazine 250, mix 75 + 15 + 250) was 0.0% and the “% Control” value ([6]; Table 3, 28 DAA, dose g ai/ha: Amicarbazone 75, Isoxaflutole 15, Atrazine 250, mix 75 + 15 + 250) was 0.0%. The “% Control” value ([6]; Table 4, 7 DAA, dose g ai/ha: Amicarbazone 250, Clomazone 250, Diuron 250, mix 250 + 250 + 250) was 18.8%, the “% Control” value ([6]; Table 4, 14 DAA, dose g ai/ha: Amicarbazone 250, Clomazone 250, Diuron 250, mix 250 + 250 + 250) was 73.8% and the “% Control” value ([6]; Table 4, 28 DAA, dose g ai/ha: Amicarbazone 250, Clomazone 250, Diuron 250, mix 250 + 250 + 250) was 86.5%. For the same molecule, the “% Control” value ([7]; Table 9, 21 DAA) was 7.5%, the “% Control” value ([7]; Table 9, 28 DAA) was 1.3% and the “% Control” value ([7]; Table 9, 35 DAA) was 0.5%.
